Data taken from the NIST ThermoML archive (doi:10.1021/je5007532).
± gives the expanded uncertainty stated by the source.

Assay: xn = mol fraction of the nth substance listed
Conditions: for viscosity: 100 kPa, Falling or rolling sphere viscometry; for viscosity / speed of sound / mass density: Liquid; for speed of sound / mass density: 101 kPa; for speed of sound: Sing-around technique in a fixed-path interferometer; for mass density: Vibrating tube method; for surface tension liquid-gas: 294.4 K, Pendant drop shape

CC(C)CC(C)(C)C [2,2,4-trimethylpentane] + CCCCCCC
Conditions	mass density [kg/m3]	speed of sound [m/s]	viscosity [mPa·s]
293.15 K, x1 = 0.1	684.83 ± 0.19	1146.5 ± 0.8	0.416 ± 0.004
293.15 K, x1 = 0.2001	685.71 ± 0.16	1141.7 ± 0.8	0.423 ± 0.004
293.15 K, x1 = 0.2999	686.59 ± 0.17	1136.6 ± 0.8	0.43 ± 0.004
293.15 K, x1 = 0.4001	687.45 ± 0.17	1131.6 ± 0.8	0.438 ± 0.004
293.15 K, x1 = 0.5001	688.28 ± 0.17	1127 ± 0.8	0.447 ± 0.004
293.15 K, x1 = 0.6	689.06 ± 0.17	1122 ± 0.8	0.456 ± 0.004
293.15 K, x1 = 0.6999	689.77 ± 0.17	1117.2 ± 0.8	0.466 ± 0.004
293.15 K, x1 = 0.8	690.5 ± 0.17	1112.5 ± 0.8	0.477 ± 0.004
293.15 K, x1 = 0.9	691.17 ± 0.17	1107.7 ± 0.8	0.488 ± 0.004
293.15 K, x1 = 1	691.84 ± 0.17	1103.2 ± 0.8	0.501 ± 0.004
298.15 K, x1 = 0.1	680.61 ± 0.19	1125.3 ± 0.8	0.394 ± 0.004
298.15 K, x1 = 0.2001	681.5 ± 0.17	1120.5 ± 0.8	0.4 ± 0.004
298.15 K, x1 = 0.2999	682.4 ± 0.17	1115.5 ± 0.8	0.407 ± 0.004
298.15 K, x1 = 0.4001	683.27 ± 0.17	1110.5 ± 0.8	0.415 ± 0.004
298.15 K, x1 = 0.5001	684.12 ± 0.17	1105.9 ± 0.8	0.423 ± 0.004
298.15 K, x1 = 0.6	684.91 ± 0.17	1101 ± 0.8	0.432 ± 0.004
298.15 K, x1 = 0.6999	685.63 ± 0.17	1096.2 ± 0.8	0.441 ± 0.004
298.15 K, x1 = 0.8	686.36 ± 0.17	1091.6 ± 0.8	0.451 ± 0.004
298.15 K, x1 = 0.9	687.05 ± 0.17	1086.7 ± 0.8	0.462 ± 0.004
298.15 K, x1 = 1	687.7 ± 0.17	1082 ± 0.8	0.473 ± 0.004
303.15 K, x1 = 0.1	676.36 ± 0.2	1103.9 ± 0.7	0.373 ± 0.003
303.15 K, x1 = 0.2001	677.27 ± 0.17	1099.2 ± 0.8	0.379 ± 0.003
303.15 K, x1 = 0.2999	678.18 ± 0.17	1094.2 ± 0.8	0.386 ± 0.004
303.15 K, x1 = 0.4001	679.07 ± 0.17	1089.3 ± 0.8	0.393 ± 0.004
303.15 K, x1 = 0.5001	679.93 ± 0.17	1084.7 ± 0.8	0.4 ± 0.004
303.15 K, x1 = 0.6	680.73 ± 0.17	1079.9 ± 0.8	0.408 ± 0.004
303.15 K, x1 = 0.6999	681.46 ± 0.17	1075.1 ± 0.8	0.417 ± 0.004
303.15 K, x1 = 0.8	682.2 ± 0.17	1070.5 ± 0.8	0.426 ± 0.004
303.15 K, x1 = 0.9	682.89 ± 0.17	1065.8 ± 0.8	0.436 ± 0.004
303.15 K, x1 = 1	683.59 ± 0.17	1061.4 ± 0.8	0.447 ± 0.004
308.15 K, x1 = 0.1	672.09 ± 0.2	1082.7 ± 0.7	0.355 ± 0.003
308.15 K, x1 = 0.2001	673.01 ± 0.17	1078 ± 0.7	0.36 ± 0.003
308.15 K, x1 = 0.2999	673.93 ± 0.17	1073.1 ± 0.8	0.366 ± 0.003
308.15 K, x1 = 0.4001	674.83 ± 0.17	1068.2 ± 0.8	0.373 ± 0.003
308.15 K, x1 = 0.5001	675.71 ± 0.17	1063.7 ± 0.8	0.38 ± 0.003
308.15 K, x1 = 0.6	676.52 ± 0.17	1058.9 ± 0.8	0.387 ± 0.004
308.15 K, x1 = 0.6999	677.26 ± 0.17	1054.2 ± 0.8	0.396 ± 0.004
308.15 K, x1 = 0.8	678.02 ± 0.17	1049.7 ± 0.8	0.404 ± 0.004
308.15 K, x1 = 0.9	678.72 ± 0.17	1045 ± 0.8	0.413 ± 0.004
308.15 K, x1 = 1	679.4 ± 0.17	1040.4 ± 0.8	0.423 ± 0.004
313.15 K, x1 = 0.1	667.78 ± 0.2	1061.7 ± 0.7	–
313.15 K, x1 = 0.2001	668.71 ± 0.17	1057 ± 0.7	–
313.15 K, x1 = 0.2999	669.65 ± 0.17	1052.2 ± 0.7	–
313.15 K, x1 = 0.4001	670.57 ± 0.17	1047.3 ± 0.8	–
313.15 K, x1 = 0.5001	671.46 ± 0.17	1042.8 ± 0.8	–
313.15 K, x1 = 0.6	672.28 ± 0.17	1038.1 ± 0.8	–
313.15 K, x1 = 0.6999	673.03 ± 0.17	1033.5 ± 0.8	–
313.15 K, x1 = 0.8	–	1029 ± 0.8	–
313.15 K, x1 = 0.9	–	1024.3 ± 0.8	–
313.15 K, x1 = 1	–	1020 ± 0.8	–

Conditions	surface tension liquid-gas [mN/m]
x1 = 0.1	19.9 ± 0.3
x1 = 0.2001	19.7 ± 0.3
x1 = 0.2999	19.5 ± 0.3
x1 = 0.4001	19.4 ± 0.3
x1 = 0.5001	19.2 ± 0.3
x1 = 0.6999	19 ± 0.3
x1 = 0.8	18.9 ± 0.3
x1 = 1	18.7 ± 0.4
